These results are taken from US20160108049A1 (TAKEDA Gmbh, priority 2011, published 2016).

Bounds are passed on as bounds.

The target in one assay is T1, PDE4B1 (Homo sapiens, UniProt Q07343).
T1 construct: made in house; host or cells: SF21 insect cells (baculovirus; virus made in SF9 cells, pCR-Bac vector)
Briefly: Inhibition of PDE4 activity (PDE4B1, SPA assay). The class given is biochemical. Conditions: recombinant PDE4B1, 0.5 μM cAMP; read-out: PDE4B1 Inhibitory values measured as -logIC50 (converted). Summed up: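 Read-out is SPA yttrium silicate bead scintillation after IBMX-containing beads stop the reaction. Insect-cell (SF21) lysate enzyme hydrolysed 0.5 μM [3H]cAMP at pH 7.4 with 5 mM Mg2+ for 15 min after a 5 min 37 °C preincubation; IC50 fitted by non-linear regression.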

The next assay has as its target T2, human PDE5 (Homo sapiens, UniProt O76074).
T2 construct: from tissue; host or cells: human platelets from fresh donor blood (platelet lysate)
Briefly: Inhibition of PDE5 activity (platelet lysate, SPA assay). The class given is biochemical. Conditions: 0.5 μM cGMP, read-out: PDE5 Inhibitory values measured as -logIC50 (converted). Summed up: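 SPA readout of [3H]cGMP hydrolysis (0.5 μM, 15 min, 37 °C after 5 min preincubation), stopped with yttrium silicate beads containing IBMX. Enzyme was lysate from human platelets, used at 10–20% substrate turnover, with PDE3 (motapizone 1 μM) and PDE2 (10 nM) blockers present. IC50 values fitted non-linearly from concentration-effect curves.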

T1 sequence (Q07343 whole entry): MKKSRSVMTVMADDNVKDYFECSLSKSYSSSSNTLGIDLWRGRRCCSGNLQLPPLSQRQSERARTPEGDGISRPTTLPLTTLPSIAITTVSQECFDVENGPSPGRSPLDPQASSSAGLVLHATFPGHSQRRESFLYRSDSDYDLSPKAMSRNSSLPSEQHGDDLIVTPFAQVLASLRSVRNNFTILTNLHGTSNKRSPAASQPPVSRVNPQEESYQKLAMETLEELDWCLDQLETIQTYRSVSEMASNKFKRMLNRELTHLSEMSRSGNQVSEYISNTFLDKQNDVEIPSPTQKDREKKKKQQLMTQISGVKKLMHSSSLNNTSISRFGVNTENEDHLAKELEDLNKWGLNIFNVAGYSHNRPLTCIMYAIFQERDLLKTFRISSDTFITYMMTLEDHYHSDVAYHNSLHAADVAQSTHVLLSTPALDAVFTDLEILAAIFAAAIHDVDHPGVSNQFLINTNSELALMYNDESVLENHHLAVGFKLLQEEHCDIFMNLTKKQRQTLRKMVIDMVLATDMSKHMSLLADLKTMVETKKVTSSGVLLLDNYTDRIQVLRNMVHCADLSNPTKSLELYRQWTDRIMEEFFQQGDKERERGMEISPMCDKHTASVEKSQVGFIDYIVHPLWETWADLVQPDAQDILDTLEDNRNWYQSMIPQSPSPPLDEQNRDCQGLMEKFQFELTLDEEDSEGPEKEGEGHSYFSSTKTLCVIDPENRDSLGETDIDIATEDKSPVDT

For the molecule `COc1ccc(C2=NN(C3CCN(C(=O)[C@@H](Cc4cccc(Cl)c4)NC(=O)c4c[nH]c5c(-c6c(OCC7CC7)ccc7c6OCO7)ncnc45)CC3)C(=O)[C@@H]3CCCC[C@H]23)cc1OC` [Example 30, N-[(2R)-3-(3-chlorophenyl)-1-{4-[(4aS,8aR)-4-(3,4-dimethoxyphenyl)-1-oxo-4a,5,6,7,8,8a-hexahydrophthalazin-2(1H)-yl]piperidin-1-yl}-1-oxopropan-2-yl]-4-[5-(cyclopropylmethoxy)-1,3-benzodioxol-4-yl]-5H-pyrrolo[3,2-d]pyrimidine-7-carboxamide], the IC50 at PDE4B1 and on human PDE5 was 1 to 10 nM each time.
For the molecule `COc1ccc(C2=NN(C3CCN(C(=O)[C@@H](Cc4ccccc4)NC(=O)c4c[nH]c5c(-c6c(OCC7CC7)ccc7c6OCO7)ncnc45)CC3)C(=O)[C@@H]3CCCC[C@H]23)cc1OC` [Example 31, 4-[5-(cyclopropylmethoxy)-1,3-benzodioxol-4-yl]-N-[(2R)-1-{4-[(4aS,8aR)-4-(3,4-dimethoxyphenyl)-1-oxo-4a,5,6,7,8,8a-hexahydrophthalazin-2(1H)-yl]piperidin-1-yl}-1-oxo-3-phenylpropan-2-yl]-5H-pyrrolo[3,2-d]pyrimidine-7-carboxamide], the IC50 on PDE4B1 was 1 to 10 nM; at human PDE5, under 1 nM.
`COc1ccc(C2=NN(C3CCN(C(=O)[C@@H](Cc4ccccc4C(F)(F)F)NC(=O)c4c(C)[nH]c5c(-c6c(OCC7CC7)ccc7c6OCO7)ncnc45)CC3)C(=O)[C@@H]3CCCC[C@H]23)cc1OC` [Example 32, 4-[5-(cyclopropylmethoxy)-1,3-benzodioxol-4-yl]-N-{(2R)-1-{4-[(4aS,8aR)-4-(3,4-dimethoxyphenyl)-1-oxo-4a,5,6,7,8,8a-hexahydrophthalazin-2(1H)-yl]piperidin-1-yl}-1-oxo-3-[2-(trifluoromethyl)phenyl]propan-2-yl}-6-methyl-5H-pyrrolo[3,2-d]pyrimidine-7-carboxamide]: the IC50 at PDE4B1 and on human PDE5 was 1 to 10 nM in each case.
For the molecule `COc1ccc(C2=NN(C3CCN(C(=O)[C@@H](Cc4ccccc4C(F)(F)F)NC(=O)c4c[nH]c5c(-c6c(OCC7CC7)ccc7c6OCO7)ncnc45)CC3)C(=O)[C@@H]3CCCC[C@H]23)cc1OC` [Example 33, 4-[5-(cyclopropylmethoxy)-1,3-benzodioxol-4-yl]-N-{(2R)-1-{4-[(4aS,8aR)-4-(3,4-dimethoxyphenyl)-1-oxo-4a,5,6,7,8,8a-hexahydrophthalazin-2(1H)-yl]piperidin-1-yl}-1-oxo-3-[2-(trifluoromethyl)phenyl]propan-2-yl}-5H-pyrrolo[3,2-d]pyrimidine-7-carboxamide], the IC50 is 1 to 10 nM at PDE4B1 and under 1 nM at human PDE5.
As for `COc1ccc(C2=NN(C3CCN(C(=O)[C@@H](Cc4ccccc4Cl)NC(=O)c4c(C)[nH]c5c(-c6c(OCC7CC7)ccc7c6OCO7)ncnc45)CC3)C(=O)[C@@H]3CCCC[C@H]23)cc1OC` [Example 34, N-[(2R)-3-(2-chlorophenyl)-1-{4-[(4aS,8aR)-4-(3,4-dimethoxyphenyl)-1-oxo-4a,5,6,7,8,8a-hexahydrophthalazin-2(1H)-yl]piperidin-1-yl}-1-oxopropan-2-yl]-4-[5-(cyclopropylmethoxy)-1,3-benzodioxol-4-yl]-6-methyl-5H-pyrrolo[3,2-d]pyrimidine-7-carboxamide], the IC50 at PDE4B1 and on human PDE5 was under 1 nM each time.
Consider `COc1ccc(C2=NN(C3CCN(C(=O)[C@@H](Cc4ccccc4Cl)NC(=O)c4c[nH]c5c(-c6c(OCC7CC7)ccc7c6OCO7)ncnc45)CC3)C(=O)[C@@H]3CCCC[C@H]23)cc1OC` [Example 35, N-[(2R)-3-(2-chlorophenyl)-1-{4-[(4aS,8aR)-4-(3,4-dimethoxyphenyl)-1-oxo-4a,5,6,7,8,8a-hexahydrophthalazin-2(1H)-yl]piperidin-1-yl}-1-oxopropan-2-yl]-4-[5-(cyclopropylmethoxy)-1,3-benzodioxol-4-yl]-5H-pyrrolo[3,2-d]pyrimidine-7-carboxamide], for which the IC50 on PDE4B1 and at human PDE5 was under 1 nM in each case.
As to `COc1ccc(C2=NN(C3CCN(C(=O)[C@H](Cc4ccccc4)NC(=O)c4c[nH]c5c(-c6c(OCC7CC7)ccc7c6OCO7)ncnc45)CC3)C(=O)[C@@H]3CCCC[C@H]23)cc1OC` [Example 36, 4-[5-(cyclopropylmethoxy)-1,3-benzodioxol-4-yl]-N-[(2S)-1-{4-[(4aS,8aR)-4-(3,4-dimethoxyphenyl)-1-oxo-4a,5,6,7,8,8a-hexahydrophthalazin-2(1H)-yl]piperidin-1-yl}-1-oxo-3-phenylpropan-2-yl]-5H-pyrrolo[3,2-d]pyrimidine-7-carboxamide], the IC50 at PDE4B1 and on human PDE5 was 1 to 10 nM in each case.
On to `COc1cc(OCC2CC2)c(-c2ncnc3c(C(=O)N[C@@H](C(=O)N4CCC(N5N=C(c6ccc(OC)c(OC)c6)[C@H]6CCCC[C@H]6C5=O)CC4)[C@H](C)c4ccccc4)c(C)[nH]c23)cc1F` [Example 37, 4-[2-(cyclopropylmethoxy)-5-fluoro-4-methoxyphenyl]-N-[(2R,3R)-1-{4-[(4aS,8aR)-4-(3,4-dimethoxyphenyl)-1-oxo-4a,5,6,7,8,8a-hexahydrophthalazin-2(1H)-yl]piperidin-1-yl}-1-oxo-3-phenylbutan-2-yl]-6-methyl-5H-pyrrolo[3,2-d]pyrimidine-7-carboxamide], for which the IC50 on PDE4B1 and on human PDE5 was 1 to 10 nM each time.
In the case of `COc1ccc(C2=NN(C3CCN(C(=O)[C@H](Cc4ccccn4)NC(=O)c4c(C)[nH]c5c(-c6c(OCC7CC7)ccc7c6OCO7)ncnc45)CC3)C(=O)[C@@H]3CCCC[C@H]23)cc1OC` [Example 38, 4-[5-(cyclopropylmethoxy)-1,3-benzodioxol-4-yl]-N-[(2S)-1-{4-[(4aS,8aR)-4-(3,4-dimethoxyphenyl)-1-oxo-4a,5,6,7,8,8a-hexahydrophthalazin-2(1H)-yl]piperidin-1-yl}-1-oxo-3-(pyridin-2-yl)propan-2-yl]-6-methyl-5H-pyrrolo[3,2-d]pyrimidine-7-carboxamide], the figures for the IC50 at PDE4B1 and on human PDE5 were 1 to 10 nM and under 1 nM, respectively.
For `COc1ccc(C2=NN(C3CCN(C(=O)[C@H](Cc4ccccn4)NC(=O)c4c[nH]c5c(-c6c(OCC7CC7)ccc7c6OCO7)ncnc45)CC3)C(=O)[C@@H]3CCCC[C@H]23)cc1OC` [Example 39, 4-[5-(cyclopropylmethoxy)-1,3-benzodioxol-4-yl]-N-[(2S)-1-{4-[(4aS,8aR)-4-(3,4-dimethoxyphenyl)-1-oxo-4a,5,6,7,8,8a-hexahydrophthalazin-2(1H)-yl]piperidin-1-yl}-1-oxo-3-(pyridin-2-yl)propan-2-yl]-5H-pyrrolo[3,2-d]pyrimidine-7-carboxamide], in that order: under 1 nM and under 1 nM.
Turning to `COc1ccc(C2=NN(C3CCN(C(=O)[C@H](Cc4ccncc4)NC(=O)c4c(C)[nH]c5c(-c6c(OCC7CC7)ccc7c6OCO7)ncnc45)CC3)C(=O)[C@@H]3CCCC[C@H]23)cc1OC` [Example 40, 4-[5-(cyclopropylmethoxy)-1,3-benzodioxol-4-yl]-N-[(2S)-1-{4-[(4aS,8aR)-4-(3,4-dimethoxyphenyl)-1-oxo-4a,5,6,7,8,8a-hexahydrophthalazin-2(1H)-yl]piperidin-1-yl}-1-oxo-3-(pyridin-4-yl)propan-2-yl]-6-methyl-5H-pyrrolo[3,2-d]pyrimidine-7-carboxamide], the IC50 at PDE4B1 was 1 to 10 nM; on human PDE5 it was under 1 nM.
For `COc1ccc(C2=NN(C3CCN(C(=O)[C@H](Cc4ccncc4)NC(=O)c4c[nH]c5c(-c6c(OCC7CC7)ccc7c6OCO7)ncnc45)CC3)C(=O)[C@@H]3CCCC[C@H]23)cc1OC` [Example 41, 4-[5-(cyclopropylmethoxy)-1,3-benzodioxol-4-yl]-N-[(2S)-1-{4-[(4aS,8aR)-4-(3,4-dimethoxyphenyl)-1-oxo-4a,5,6,7,8,8a-hexahydrophthalazin-2(1H)-yl]piperidin-1-yl}-1-oxo-3-(pyridin-4-yl)propan-2-yl]-5H-pyrrolo[3,2-d]pyrimidine-7-carboxamide], in that order: under 1 nM and under 1 nM.
Regarding `COc1ccc(C2=NN(C3CCN(C(=O)[C@H](Cc4cccnc4)NC(=O)c4c(C)[nH]c5c(-c6c(OCC7CC7)ccc7c6OCO7)ncnc45)CC3)C(=O)[C@@H]3CCCC[C@H]23)cc1OC` [Example 42, 4-[5-(cyclopropylmethoxy)-1,3-benzodioxol-4-yl]-N-[(2S)-1-{4-[(4aS,8aR)-4-(3,4-dimethoxyphenyl)-1-oxo-4a,5,6,7,8,8a-hexahydrophthalazin-2(1H)-yl]piperidin-1-yl}-1-oxo-3-(pyridin-3-yl)propan-2-yl]-6-methyl-5H-pyrrolo[3,2-d]pyrimidine-7-carboxamide], the IC50 on PDE4B1 and at human PDE5 was under 1 nM throughout.
In the case of `COc1ccc(C2=NN(C3CCN(C(=O)[C@H](Cc4cccnc4)NC(=O)c4c[nH]c5c(-c6c(OCC7CC7)ccc7c6OCO7)ncnc45)CC3)C(=O)[C@@H]3CCCC[C@H]23)cc1OC` [Example 43, 4-[5-(cyclopropylmethoxy)-1,3-benzodioxol-4-yl]-N-[(2S)-1-{4-[(4aS,8aR)-4-(3,4-dimethoxyphenyl)-1-oxo-4a,5,6,7,8,8a-hexahydrophthalazin-2(1H)-yl]piperidin-1-yl}-1-oxo-3-(pyridin-3-yl)propan-2-yl]-5H-pyrrolo[3,2-d]pyrimidine-7-carboxamide], the IC50 on PDE4B1 and on human PDE5 was under 1 nM each time.
